Measured values as given in PubChem BioAssay (NCI).
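Assay format: 96-well plates, 48-hour exposure. Here, GI50 denotes the concentration required for 50% inhibition of growth. TGI: concentration producing complete growth inhibition.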

Assays:
Assay in all cases: NCI anticancer screen, dose series, 48 h
CCRF-CEM leukemia = test system: CCRF-CEM leukemia
UACC-257 melanoma = test system: UACC-257 melanoma
EKVX NSCLC = test system: EKVX NSCLC
OVCAR-8 ovarian = test system: OVCAR-8 ovarian
SF-539 CNS = test system: SF-539 CNS
TK-10 renal = test system: TK-10 renal
NCI-H23 lung = test system: NCI-H23 lung
SN12C renal = test system: SN12C renal
SK-MEL-5 melanoma = test system: SK-MEL-5 melanoma
MDA-MB-435 = test system: MDA-MB-435

Compound | TGI (CCRF-CEM leukemia) | TGI (UACC-257 melanoma) | TGI (EKVX NSCLC) | TGI (OVCAR-8 ovarian) | TGI (SF-539 CNS) | TGI (TK-10 renal) | TGI (NCI-H23 lung) | TGI (SN12C renal) | GI50 (CCRF-CEM leukemia) | GI50 (UACC-257 melanoma) | GI50 (EKVX NSCLC) | GI50 (SK-MEL-5 melanoma) | TGI (SK-MEL-5 melanoma) | GI50 (OVCAR-8 ovarian) | GI50 (SF-539 CNS) | GI50 (TK-10 renal) | GI50 (NCI-H23 lung) | GI50 (SN12C renal) | GI50 (MDA-MB-435) | TGI (MDA-MB-435)
Cc1c(C(=O)/C=C/c2ccc([N+](=O)[O-])cc2)[n+](=O)c2ccccc2n1[O-] | 99.2 µM | > 100 µM | > 100 µM | > 100 µM | > 100 µM | > 100 µM | 86.7 µM | > 100 µM | – | – | – | – | – | – | – | – | – | – | – | –
Cc1ccc(/C=C(/C#N)n2nnc3cccc(F)c32)cc1 | > 100 µM | 39.9 µM | 18.7 µM | > 100 µM | 0.657 µM | 13 µM | 12 µM | 12.8 µM | 0.389 µM | 1.13 µM | 0.863 µM | 0.423 µM | 4.22 µM | 0.594 µM | 0.247 µM | 1.22 µM | 0.461 µM | 0.485 µM | – | –
O=C(CCl)N1CCN(c2ccccn2)CC1 | 69.2 µM | 65.5 µM | 48.6 µM | 60.8 µM | – | 35.8 µM | 39.9 µM | – | – | – | – | – | 35 µM | – | – | – | – | – | – | –
c1ccc(-c2sc(-c3ccccc3)c3c2C(c2ccccc2)c2c(-c4ccccc4)sc(-c4ccccc4)c2C3c2ccccc2)cc1 (stereo not given) | > 100 µM | > 100 µM | > 100 µM | > 100 µM | > 100 µM | > 100 µM | > 100 µM | > 100 µM | – | – | – | – | > 100 µM | – | – | – | – | – | – | –
O=c1[nH]c(-c2ccccc2)nc2cc([N+](=O)[O-])c(/C(Cl)=C/c3ccccc3)cc12 | – | 48.3 µM | > 100 µM | 45.4 µM | > 100 µM | 76.6 µM | > 100 µM | > 100 µM | – | – | – | – | 74 µM | – | – | – | – | – | – | –
[CH3][Ge]([CH3])([CH2]CC#N)[S]c1ccccc1 | 4.35 µM | 70.7 µM | 66.2 µM | 46.5 µM | 27.8 µM | 72.8 µM | 46.4 µM | 31.6 µM | 1.38 µM | 22.7 µM | 7.28 µM | 26 µM | 75.9 µM | 11.5 µM | 12.9 µM | 24.4 µM | 18.3 µM | 15.2 µM | – | –
C/C(=C\CNc1ncnc2c1ncn2C1CCCCO1)COP(=O)(O)O (stereo not given) | > 100 µM | > 100 µM | > 100 µM | > 100 µM | > 100 µM | > 100 µM | > 100 µM | > 100 µM | – | – | – | – | > 100 µM | – | – | – | – | – | – | –
c1ccc(C2=Nc3ccccc3N3CNN=C23)cc1 | > 100 µM | > 100 µM | > 100 µM | > 100 µM | – | > 100 µM | > 100 µM | > 100 µM | > 100 µM | > 100 µM | 47.9 µM | 63.6 µM | > 100 µM | > 100 µM | – | 79.4 µM | > 100 µM | > 100 µM | > 100 µM | > 100 µM
NNC(=O)N/N=C(/CC1(O)C(=O)Nc2ccc(Br)cc21)c1ccccc1 (stereo not given) | 65.2 µM | > 100 µM | > 100 µM | – | > 100 µM | > 100 µM | > 100 µM | > 100 µM | – | – | – | – | – | – | – | – | – | – | – | –
CCCN(CCCC(NC(C)=O)C(=O)NCc1ccccc1)C(=O)N(C)N=O (stereo not given) | > 100 µM | > 100 µM | > 100 µM | > 100 µM | > 100 µM | > 100 µM | > 100 µM | > 100 µM | – | – | – | – | > 100 µM | – | – | – | – | – | – | –
O=C1C=C(Nc2cc(Cl)ccc2Cl)c2ccccc2C1=O | – | 41.8 µM | > 100 µM | 56.9 µM | > 100 µM | – | 39.3 µM | > 100 µM | – | – | – | – | – | – | – | – | – | – | – | –
CCP(C)(=O)CC | > 100 µM | > 100 µM | > 100 µM | > 100 µM | > 100 µM | > 100 µM | > 100 µM | > 100 µM | – | – | – | – | > 100 µM | – | – | – | – | – | – | –
CCOC(=O)C1(C)C2=CC=C(O2)C(C)(C)C2=CC=C(O2)C(C)(C)C2=CC=C(O2)C(C)(C)C2=CC=C1O2 | > 100 µM | > 100 µM | > 100 µM | > 100 µM | > 100 µM | > 100 µM | > 100 µM | > 100 µM | – | – | – | – | – | – | – | – | – | – | – | –
Cc1cc(NS(=O)(=O)c2ccc(NC(=O)c3cccc4c(Nc5ccc(S(=O)(=O)Nc6cc(C)on6)cc5)c5ccc(Cl)cc5nc34)cc2)no1 | > 100 µM | > 100 µM | > 100 µM | > 100 µM | > 100 µM | > 100 µM | > 100 µM | > 100 µM | – | – | – | – | > 100 µM | – | – | – | – | – | – | –
CCN(CC)Cc1cc(Nc2ccnc3ccc(OC)cc23)ccc1O | – | – | 38.8 µM | 34.5 µM | 4.84 µM | 8.43 µM | 26.5 µM | 20.6 µM | – | – | 5.16 µM | 2.46 µM | 6.31 µM | 7.21 µM | 2.17 µM | 3.1 µM | 7.46 µM | 3.57 µM | 3.08 µM | 12.3 µM
N#Cc1c(-c2ccccc2)nc(SCC(O)CN2CCOCC2)nc1N1CCOCC1 (stereo not given) | > 100 µM | 45.7 µM | > 100 µM | > 100 µM | – | > 100 µM | > 100 µM | > 100 µM | 88 µM | 2.88 µM | 7.52 µM | 2.99 µM | 47.9 µM | 11.4 µM | – | 10.9 µM | 37.5 µM | 18.9 µM | 19.6 µM | > 100 µM
O=C(CC(=O)N1N=C(n2ccc3ccccc32)CC1c1ccccc1)Nc1ccccc1Cl (stereo not given) | > 100 µM | > 100 µM | > 100 µM | > 100 µM | > 100 µM | > 100 µM | > 100 µM | > 100 µM | – | – | – | – | – | – | – | – | – | – | – | –
O=C1NC(c2cccc3ccccc23)Nc2ccc(Cl)cc21 (stereo not given) | 0.0512 µM | – | 83.3 µM | 11.4 µM | – | – | 14.9 µM | 17.9 µM | – | – | 0.0129 µM | – | – | – | – | – | 0.011 µM | – | – | 0.000257 µM
CCCCN(CCCC)CC(C(=O)Nc1ccc([N+](=O)[O-])cc1[N+](=O)[O-])/C(C)=N\NC(=O)c1ccncc1 (stereo not given) | > 100 µM | > 100 µM | > 100 µM | > 100 µM | > 100 µM | > 100 µM | > 100 µM | > 100 µM | – | – | – | – | > 100 µM | – | – | – | – | – | – | –
C=C1C2CCCC1C1(S(C)(=O)=O)CCCCC21O (stereo not given) | – | > 100 µM | > 100 µM | > 100 µM | > 100 µM | > 100 µM | > 100 µM | > 100 µM | – | – | – | – | > 100 µM | – | – | – | – | – | – | –
